Results: PMC3934957, “A Porphodimethene Chemical Inhibitor of Uroporphyrinogen Decarboxylase” (PLoS ONE, 2014)

Molecular target: T1, uroporphyrinogen decarboxylase (UROD) (Homo sapiens, UniProt P06132)
T1 construct: recombinant UROD (GenBank BC001778) with 5'-histidine tag and thrombin cleavage site
T1 sequence (P06132 1-367): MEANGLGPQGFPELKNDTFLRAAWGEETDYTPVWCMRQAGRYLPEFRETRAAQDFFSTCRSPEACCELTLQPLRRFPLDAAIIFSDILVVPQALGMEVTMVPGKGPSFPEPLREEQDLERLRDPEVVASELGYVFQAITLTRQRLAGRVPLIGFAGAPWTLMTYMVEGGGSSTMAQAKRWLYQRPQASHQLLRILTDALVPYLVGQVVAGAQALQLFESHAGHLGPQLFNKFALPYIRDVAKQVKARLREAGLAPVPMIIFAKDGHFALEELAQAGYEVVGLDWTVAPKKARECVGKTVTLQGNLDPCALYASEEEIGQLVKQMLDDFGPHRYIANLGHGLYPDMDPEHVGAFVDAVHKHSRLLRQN
Test: Recombinant UROD enzyme assay with RP-HPLC fluorescence detection of uroporphyrin/coproporphyrin ([…] UROD, […] uroporphyrinogen)
Assay type: biochemical

## CC1=C(CCC(=O)O)C2=Cc3[nH]c(c(C)c3CCC(=O)O)C(C)(C)C3=NC(=Cc4[nH]c(c(C)c4CCC(=O)O)C(C)(C)C1=N2)C(CCC(=O)O)=C3C [PI-16]
  IC50: 9.9 µM
